These compounds were tested against Human immunodeficiency virus type 1 reverse transcriptase (Human immunodeficiency virus 1, UniProt Q72547).
In the case of `CCOC(=O)/C(O)=C/C(=O)/C=C/c1cc(C(=O)c2ccc(F)cc2)cn1C`, the IC50 is reported as 28 µM.
`C/C(C(=O)c1cn(Cc2ccc(F)cc2)cc1-c1ccccc1)=C(/O)C(=O)O` was tested, and the IC50 was 64 µM.
`CCOC(=O)/C(O)=C/C(=O)/C=C/c1cn(Cc2ccc(F)cc2)cc1-c1ccccc1` was tested, and the IC50 was 3 µM.
In the case of `N/C(=C\C(=O)c1cn(Cc2ccc(F)cc2)cc1-c1ccccc1)C(=O)O` (mixture of isomers), the IC50 is reported as 2 µM.
Compound `CCOC(=O)/C(N)=C/C(=O)c1cn(Cc2ccc(F)cc2)cc1-c1ccccc1` has an IC50 of 72 µM.
`O=C(/C=C(\O)C(=O)O)/C=C/c1cc(C(=O)c2ccc(F)cc2)cn1Cc1ccccc1` showed an IC50 of 7.5 µM.
`Cn1cc(C(=O)c2ccc(F)cc2)cc1/C=C/C(=O)/C=C(\O)C(=O)O` was tested, and the IC50 was 20 µM.

Reference: ChEMBL document CHEMBL3414482, “Structure-activity relationship of pyrrolyl diketo acid derivatives as dual inhibitors of HIV-1 integrase and reverse transcriptase ribonuclease H domain” (J Med Chem, 2015)
